Laboratory results from patent publication US12441757B2, “Platform for screening NAD+ binding proteins in a cellular context” (OREGON HEALTH & SCIENCE UNIVERSITY, priority 2020, dated 2025).

Molecular target: T1, PARP-10 (Homo sapiens, UniProt Q53GL7)
T1 construct: Full length His6-PARP-1 and His6-SUMO-PARP-10 proteins we expressed and purified; His6 (N); SUMO (N); made in house
T1 sequence (Q53GL7 1-1025): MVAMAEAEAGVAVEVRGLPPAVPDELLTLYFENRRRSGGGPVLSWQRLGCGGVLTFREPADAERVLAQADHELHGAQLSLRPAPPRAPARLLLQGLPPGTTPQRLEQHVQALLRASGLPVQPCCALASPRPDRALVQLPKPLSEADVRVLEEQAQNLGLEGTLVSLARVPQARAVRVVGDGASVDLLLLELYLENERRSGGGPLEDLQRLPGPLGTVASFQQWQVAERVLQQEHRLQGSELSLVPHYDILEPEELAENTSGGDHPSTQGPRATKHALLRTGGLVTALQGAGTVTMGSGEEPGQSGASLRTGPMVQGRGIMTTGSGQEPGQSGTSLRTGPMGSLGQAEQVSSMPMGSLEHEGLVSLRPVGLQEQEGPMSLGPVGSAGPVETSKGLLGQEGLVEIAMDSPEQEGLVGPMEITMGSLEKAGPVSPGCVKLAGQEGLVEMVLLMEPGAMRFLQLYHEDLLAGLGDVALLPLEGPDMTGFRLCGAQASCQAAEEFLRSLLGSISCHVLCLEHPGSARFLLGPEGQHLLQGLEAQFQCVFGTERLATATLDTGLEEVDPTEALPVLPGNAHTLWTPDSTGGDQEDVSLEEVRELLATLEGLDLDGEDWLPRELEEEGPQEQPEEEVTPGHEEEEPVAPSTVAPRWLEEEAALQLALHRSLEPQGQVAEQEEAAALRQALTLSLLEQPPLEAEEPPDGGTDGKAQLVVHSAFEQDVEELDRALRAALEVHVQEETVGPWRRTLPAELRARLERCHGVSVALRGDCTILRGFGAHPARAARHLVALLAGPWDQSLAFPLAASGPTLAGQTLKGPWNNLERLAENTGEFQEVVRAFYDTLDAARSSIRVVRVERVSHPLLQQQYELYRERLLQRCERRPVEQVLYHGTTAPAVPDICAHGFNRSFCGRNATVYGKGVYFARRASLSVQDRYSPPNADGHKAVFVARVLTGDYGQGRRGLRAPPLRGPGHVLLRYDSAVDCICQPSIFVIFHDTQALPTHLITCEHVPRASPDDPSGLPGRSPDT
Test: In vitro PARP-10 auto-MARylation activity assay
Assay type: biochemical
Method: FIG. 5. A clickable NAD^+ PAL probe (2-ad-BAD) inhibits PARP-1 and PARP-10 activity in concentration response. (FIG. 5A) 50 nM of recombinant His6-PARP-1 was incubated with 10 μg/mL activated DNA in 100 mM NaCl, 50 mM HEPES [pH 7.4], 4 mM MgCl2, 0.2 mM TCEP for 10 min, then treated with indicated competitor (BAD or the PARP-1 inhibitor NMS-P118) for additional 10 min. 50 μM NAD^+ was then added to initiate auto-PARylation of PARP-1. After 10 min, the reaction was quenched by addition of 4× Laemmli sample buffer and boiling at 95° C. for 5 min. Protein samples were separated by SDS-PAGE, transferred onto nitrocellulose and probed with indicated antibodies. (FIG. 5B) Experiments were performed essentially as in (5A) with the exception that damaged DNA was omitted and the PARP-10 inhibitor ITK6 was used instead of NMS-P118. (FIG. 5C) Densitometry analyses of (5A) and (5B) comparing inhibitory effect of BAD on PARP-1 and PARP-10 auto-ADP-ribosylation. Data are mean±SEM of 3 independent experiments. […]
Samples were run on 10% or 12% acrylamide gels for ˜1 h at 180 V in Mini-PROTEAN Tetra cell (Biorad). […] Band intensities we quantified with ImageJ.

relative potency against PARP-10 compared to PARP-1 (auto-ADP-ribosylation assays, densitometry): the opposite was true | inhibition of PARP-10 auto-MARylation (dose response, 50 μM NAD^+, anti-ADPr immunoblot): inhibited
Structure (SMILES): NC(=O)c1cccc([C@@H]2O[C@H](COP(=O)(O)OP(=O)(O)OC[C@H]3O[C@@H](n4cnc5c(N)ncnc54)[C@H](O)[C@@H]3O)[C@@H](O)[C@H]2O)c1 [BAD, benzamide adenine dinucleotide]
